IC90 and EC50 data for 16 compounds are collected here from patent publication US20240382482A1, “PLASMA KALLIKREIN INHIBITORS” (TAKEDA PHARMACEUTICAL COMPANY LIMITED, priority 2021, published 2024).

One test concerns the target T1, plasma kallikrein (Homo sapiens, UniProt P03952).
T1 construct: added to sodium citrate collected human or rat plasma in a 96-well microplate; from tissue
Briefly: Neat human plasma assay (fluorogenic peptide), contact pathway-activated plasma. In kind it is biochemical. The settings on record: sodium citrate human plasma (78% final), 10 nM human FXIIa, 100 μM PFR-AMC, room temperature. The protocol: To analyze inhibition of plasma kallikrein in an ex vivo setting, the potency of compounds was measure in contact pathway-activated plasma assays. In a fluorogenic peptide substrate assay, test compounds dissolved in DMSO were added to sodium citrate collected human or rat plasma in a 96-well microplate. Alternatively, citrated plasma was collected from rats administered the compounds orally or by IV. 10 nM of human FXIIa (Enzyme Research Laboratories) diluted in PKa buffer (20 mM Tris-HCl, pH 7.5, 150 mM NaCl, 1 mM EDTA, 0.1% PEG-8000, and 0.1% Triton X-100) was added to the plasma, followed by the 100 μM of the profluorescent, synthetic plasma kallikrein substrate PFR-AMC (also diluted in PKa buffer). Final plasma concentration in the reaction was 78%. Fluorescence was immediately monitored by excitation/emission wavelengths of 360 nm/480 nm respectively over a period of 5 minutes in a microplate reader. The resulting linear increase in fluorescence emission (reflecting PKa proteolysis of PFR-AMC substrate) was fit to extract a proteolytic rate (fluorescent units over time), and this rate was subsequently plotted against compound inhibitor concentration. Resulting plots were fit to a standard 4-parameter IC50/IC90 equation to determine min/max values, IC50/90, and slope. All experimental steps were performed at room temperature.

In test [1] the target is human activated kallikrein enzyme (Homo sapiens, UniProt P03952). Briefly: Inhibition of human activated kallikrein enzyme, fluorogenic peptide substrate assay (500 pM enzyme format). In kind it is biochemical. The settings on record: 500 pM activated kallikrein, 300 μM PFR-AMC substrate, 30 min preincubation, 10 min reaction, room temperature; read-out: Primary Dose Response Assay: Average EC50. An outline of the steps: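 500 pM enzyme preincubated 30 min at room temperature with inhibitor in 20 mM Tris pH 7.5, 150 mM NaCl, 1 mM EDTA, 0.1% PEG-400, 0.1% Triton X-100. Reaction started with 300 μM PFR-AMC and run 10 min at room temperature. AMC fluorescence read at ex 380/em 460 nm, and EC50 values reported as ranges.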
Chain of human activated kallikrein enzyme (P03952 391-638 limits assumed): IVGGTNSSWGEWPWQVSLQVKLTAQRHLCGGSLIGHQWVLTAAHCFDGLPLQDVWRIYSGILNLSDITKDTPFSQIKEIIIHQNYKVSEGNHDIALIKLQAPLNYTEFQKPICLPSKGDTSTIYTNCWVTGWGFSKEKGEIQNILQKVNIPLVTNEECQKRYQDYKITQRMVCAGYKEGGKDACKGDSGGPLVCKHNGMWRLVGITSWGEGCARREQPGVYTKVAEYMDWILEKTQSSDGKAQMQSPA
Chain of human activated kallikrein enzyme (P03952 20-390 partner limits assumed): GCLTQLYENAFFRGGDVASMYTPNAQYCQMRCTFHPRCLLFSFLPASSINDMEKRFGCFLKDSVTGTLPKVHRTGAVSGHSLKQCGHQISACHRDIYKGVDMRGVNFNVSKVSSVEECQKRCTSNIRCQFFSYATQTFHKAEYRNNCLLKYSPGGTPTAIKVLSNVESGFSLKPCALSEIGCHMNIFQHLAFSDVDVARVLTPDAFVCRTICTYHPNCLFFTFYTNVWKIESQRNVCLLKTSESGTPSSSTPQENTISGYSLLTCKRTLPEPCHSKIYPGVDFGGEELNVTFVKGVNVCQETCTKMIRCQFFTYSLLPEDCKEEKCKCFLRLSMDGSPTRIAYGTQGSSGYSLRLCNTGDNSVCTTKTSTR

Some results are limits rather than exact numbers.

T1 sequence (P03952 391-638 limits assumed): as the sequence (P03952 391-638 limits assumed) above
T1 sequence (P03952 20-390 partner limits assumed): as the sequence (P03952 20-390 partner limits assumed) above

At plasma kallikrein, `O=C(Cc1ncn2ccc(Cl)cc12)Nc1cc(NCc2cn3cc(C4CC4)cc(CO)c3n2)ccn1` [Example 52, 2-(7-chloroimidazo[1,5-a]pyridin-1-yl)-N-(4-(((6-cyclopropyl-8-(hydroxymethyl)imidazo[1,2-a]pyridin-2-yl)methyl)amino)pyridin-2-yl)acetamide] came in with a concentration for an effect of 90% (IC90) of no more than 500 nM. Moreover, the EC50 in test [1] was no more than 5 nM.

Compound `Cc1cc(N)nc(C)c1CNc1cc(OCc2cn3cc(C4CC4)cc(C#N)c3n2)ncn1` [Example 112, 2-(((6-(((6-amino-2,4-dimethylpyridin-3-yl)methyl)amino)pyrimidin-4-yl)oxy)methyl)-6-cyclopropylimidazo[1,2-a]pyridine-8-carbonitrile] gave an IC90 against plasma kallikrein of 500 to 5000 nM. The EC50 in test [1] was no more than 5 nM.

As to `COc1ccc(-n2cnnn2)c(CNc2cc(NCc3cn4cc(C5CC5)ccc4n3)ncn2)c1F` [Example 55, N^4-((6-cyclopropylimidazo[1,2-a]pyridin-2-yl)methyl)-N^6-(2-fluoro-3-methoxy-6-(1H-tetrazol-1-yl)benzyl)pyrimidine-4,6-diamine], the 90% effect concentration (IC90) against plasma kallikrein was in the range of 500 to 5000 nM. The concentration for a half-maximal effect (EC50) in test [1] is no more than 5 nM.

In turn, `CN1C(=O)CN(c2cc(C3CC3)cn3cc(CNc4cc(NC(=O)Cc5ncn6ncc(Cl)cc56)ncn4)nc23)C1=O` [Example 141, 2-(3-chloroimidazo[1,5-b]pyridazin-5-yl)-N-(6-(((6-cyclopropyl-8-(3-methyl-2,4-dioxoimidazolidin-1-yl)imidazo[1,2-a]pyridin-2-yl)methyl)amino)pyrimidin-4-yl)acetamide] displayed an IC90 against plasma kallikrein of 500 to 5000 nM. The EC50 in test [1] was no more than 5 nM.

Compound `O=C(Cc1ncn2ccc(Cl)cc12)Nc1cc(NCc2cn3cc(C4CC4)cc(N4CCCC4=O)c3n2)ncn1` [Example 12, 2-(7-chloroimidazo[1,5-a]pyridin-1-yl)-N-(6-(((6-cyclopropyl-8-(2-oxopyrrolidin-1-yl)imidazo[1,2-a]pyridin-2-yl)methyl)amino)pyrimidin-4-yl)acetamide] returned an IC90 against plasma kallikrein of 500 to 5000 nM. In addition, the concentration giving a half-maximal response (EC50) in test [1] is no more than 5 nM.

For `Cc1cc(N)nc(C)c1CNc1cc(OCc2cn3cc(C4CC4)ccc3n2)ccn1` [Example 110, 5-(((4-((6-cyclopropylimidazo[1,2-a]pyridin-2-yl)methoxy)pyridin-2-yl)amino)methyl)-4,6-dimethylpyridin-2-amine], the IC90 at plasma kallikrein lay in the range of 5000 to 25000 nM. Moreover, the EC50 in test [1] was no more than 5 nM.

At plasma kallikrein, `CN1CCN(c2cc(C3CC3)cn3cc(CNc4cc(NC(=O)Cc5ncn6ccc(Cl)cc56)ncn4)nc23)CC1` [Example 17, 2-(7-chloroimidazo[1,5-a]pyridin-1-yl)-N-(6-(((6-cyclopropyl-8-(4-methylpiperazin-1-yl)imidazo[1,2-a]pyridin-2-yl)methyl)amino)pyrimidin-4-yl)acetamide] displayed an IC90 of no more than 500 nM. Besides, the half-maximal effective concentration (EC50) in test [1] is no more than 5 nM.

The compound `O=C(Cc1ncn2ccc(Cl)cc12)Nc1cc(NCc2cn3cc(C4CC4)ccc3n2)cnn1` [Example 31, 2-(7-chloroimidazo[1,5-a]pyridin-1-yl)-N-(5-(((6-cyclopropylimidazo[1,2-a]pyridin-2-yl)methyl)amino)pyridazin-3-yl)acetamide] displayed an IC90 at plasma kallikrein of 500 to 5000 nM. For the same compound, the EC50 in test [1] is no more than 5 nM.

The compound `Cc1cc(N)nc(C)c1CNc1cc(N2C[C@@H](O)C[C@@H]2c2cn3cc(C4CC4)ccc3n2)ncn1` [Example 135, (3S,5R)-1-(6-(((6-amino-2,4-dimethylpyridin-3-yl)methyl)amino)pyrimidin-4-yl)-5-(6-cyclopropylimidazo[1,2-a]pyridin-2-yl)pyrrolidin-3-ol] registered an IC90 against plasma kallikrein of no more than 500 nM. Besides, the 50% effective concentration (EC50) in test [1] was no more than 5 nM.

Compound `O=C(Cc1n[nH]c2ccc(Cl)cc12)Nc1cc(NCc2cn3cc(C4CC4)ccc3n2)ccn1` [Example 26, 2-(5-chloro-1H-indazol-3-yl)-N-(4-(((6-cyclopropylimidazo[1,2-a]pyridin-2-yl)methyl)amino)pyridin-2-yl)acetamide] showed an IC90 against plasma kallikrein of 5000 to 25000 nM. The EC50 in test [1] is no more than 5 nM.

For the compound `Cc1cc(N)nc(C)c1CNc1cc(OCc2cn3cc(C4CC4)cc(C4(F)COC4)c3n2)ncn1` [Example 109, N-((6-amino-2,4-dimethylpyridin-3-yl)methyl)-6-((6-cyclopropyl-8-(3-fluorooxetan-3-yl)imidazo[1,2-a]pyridin-2-yl)methoxy)pyrimidin-4-amine], the IC90 against plasma kallikrein is no more than 500 nM. In test [1], the EC50 was no more than 5 nM.

Turning to `Cc1cc(N)nc(C)c1CNc1cc(OCc2cn3cc(C4CC4)ccc3n2)ncn1` [Example 107, N-((6-amino-2,4-dimethylpyridin-3-yl)methyl)-6-((6-cyclopropylimidazo[1,2-a]pyridin-2-yl)methoxy)pyrimidin-4-amine], the 90% effect concentration (IC90) at plasma kallikrein fell in the range of 5000 to 25000 nM. In test [1], the EC50 was no more than 5 nM.

For the compound `N#Cc1cc(C2CC2)cn2cc(CNc3ccnc(NC(=O)Cc4ncn5ccc(Cl)cc45)c3)nc12` [Example 30, 2-(7-chloroimidazo[1,5-a]pyridin-1-yl)-N-(4-(((8-cyano-6-cyclopropylimidazo[1,2-a]pyridin-2-yl)methyl)amino)pyridin-2-yl)acetamide], the IC90 on plasma kallikrein is 500 to 5000 nM. Besides, the concentration for a half-maximal effect (EC50) in test [1] was no more than 5 nM.

The compound `O=C(Cc1ncn2ccc(Cl)cc12)Nc1cc(NCc2cn3cc(C4CC4)ccc3n2)ncn1` [Example 1, 2-(7-chloroimidazo[1,5-a]pyridin-1-yl)-N-(6-(((6-cyclopropylimidazo[1,2-a]pyridin-2-yl)methyl)amino)pyrimidin-4-yl)acetamide] registered a 90% effect concentration (IC90) against plasma kallikrein of 500 to 5000 nM. Also, the EC50 in test [1] was no more than 5 nM.

In the case of `O=C(Cc1ncn2ccc(Cl)cc12)Nc1cc(NCc2cn3cc(C4CC4)cc(C4(O)COC4)c3n2)ncn1` [Example 14, 2-(7-chloroimidazo[1,5-a]pyridin-1-yl)-N-(6-(((6-cyclopropyl-8-(3-hydroxyoxetan-3-yl)imidazo[1,2-a]pyridin-2-yl)methyl)amino)pyrimidin-4-yl)acetamide], the IC90 on plasma kallikrein was no more than 500 nM. Further, in test [1], the EC50 was no more than 5 nM.

As to `Cc1cc(N)nc(C)c1CNc1cc(OCc2cn3cc(C4CC4)cc(CO)c3n2)ncn1` [Example 113, (2-(((6-(((6-amino-2,4-dimethylpyridin-3-yl)methyl)amino)pyrimidin-4-yl)oxy)methyl)-6-cyclopropylimidazo[1,2-a]pyridin-8-yl)methanol], the 90% effect concentration (IC90) against plasma kallikrein lay within 5000 to 25000 nM. Moreover, the 50% effective concentration (EC50) in test [1] is no more than 5 nM.

What is called IC90 is the concentration needed for an effect of 90%. A lower IC90 goes with greater potency. Broadly, the EC50 is the concentration at which the effect is half-maximal.
